Experimental data: patent publication US20130317037A1, “METHOD OF ADMINISTRATION AND TREATMENT” (GlaxoSmithKline Intellectual Property Development Limited, priority 2010, published 2013)
Where two headings read alike, the source gives them in different places.

What was measured:
[1] = test system: EFM-19; experiment: Panel A proliferation assay (CellTiter-Glo); HER2 Gain <5, KRAS WT, PIK3CA p.H1047L; type: cell-based, human; details: for IC50: Homo sapiens
Description: (§1) A total of 15 breast cancer cell lines were used in this study. These cells were cultured in RPMI-1640 and supplemented with 5% or 10% fetal bovine serum, 2 mM GlutaMAX™ and 1 mM sodium pyruvate, or in growth medium recommended by the suppliers [American Type Culture Collection, Manassas, Va., USA; Developmental Therapeutics Program, National Cancer Institute, Bethesda, Md., USA; German Collection of Microorganisms and Cell Cultures (DSMZ), Braunschweig, Germany; European Collection of Cell Cultures (ECACC), Porton Down, UK]. Cells of each line were seeded into a 384-well microtiter plate at two cell densities. Low density ranges were 300-1800 cells/well, and a high density was 600 to 3600 cells/well). The plating density was determined by the rate of proliferation of the cell line in the absence of any inhibitor and varied amongst cell lines. High plating densities were double that of low density. Each cell density was plated in triplicate. In total there were 30 wells to be treated with increasing concentrations of Compound B for each cell line at each density. In addition, there were 24 wells of dimethyl sulfoxide (DMSO)-treated controls at each density. After seeding, the cells were incubated at 37° C. in 5% CO2 for 24 hours. Subsequently, Compound B was added to each cell line with 10 concentrations. The dosing solution of Compound B was first prepared in DMSO at a master stock concentration of 10 mM. 1:3 serial dilutions were then made of the stock solution to give a range of working stock concentrations; 10.00 mM, 3.164 mM, 1.001 mM, 316.9 μM, 100.3 μM, 31.74 μM, 10.04 μM, 3.178 μM, 1.006 μM and 318.3 nM. The working stock concentrations of Compound B were then dispensed into the seeded cancer cell lines using a Biomek FX liquid handler to give final treatment concentrations of 0.1% of the stock concentration. A similar volume of DMSO without Compound B was dispensed into the 24 control wells of each seeding density at a concentration of 0.1%. Also, a zero-time plate prepared with a similar cell seeding was read for each cell line at each seeding density immediately after the addition of the DMSO control. After a 72 h incubation, an equal volume of the CellTiter-Glo (CellTiter-Glo Luminescent Cell Viability Assay, Promega, Madison, Wis.) to that of the cell culture medium was added into each well of the plate. After the contents were mixed to induce cell lysis and stabilization, cell luminescence was recorded using a SpectraMax M5^e (Molecular Devices, Sunnyvale, Calif., USA)
(§2) The luminescence of Compound B treated cells was compared relative to the average of the 24 DMSO-treated control wells at each cell density for every concentration of Compound B for all triplicate wells. The percent intensity values were used in model 205 of XLfit in Microsoft Excel to calculate gIC50s for the low and high seeding density (a 4 parameter logistical fit). Specifically, the midpoint of the growth window (the gIC50) falls half way between the number of cells at the time of compound addition (T=0) and the growth of control cells treated with DMSO. The gIC50 value serves as a metric for measuring the inhibition of proliferation in cancer cells. […] Finally, where data quality permits, the Ymin values (defined as the maximum growth inhibition relative to the cell density at Time-zero) were calculated as a measure of cytotoxicity where data were of reasonable quality.

[2] = test system: MDA-MB-175-VII; experiment: Panel A proliferation assay (CellTiter-Glo); HER2 2 copies, KRAS WT, PIK3CA WT; type: cell-based, human; details: for IC50: Homo sapiens
Description: as §1
(§3) The luminescence of Compound B treated cells was compared relative to the average of the 24 DMSO-treated control wells at each cell density for every concentration of Compound B for all triplicate wells. The percent intensity values were used in model 205 of XLfit in Microsoft Excel to calculate gIC50s for the low and high seeding density (a 4 parameter logistical fit). Specifically, the midpoint of the growth window (the gIC50) falls half way between the number of cells at the time of compound addition (T=0) and the growth of control cells treated with DMSO. The gIC50 value serves as a metric for measuring the inhibition of proliferation in cancer cells. The curves for each seeding density for each cell line were manually inspected for both data quality and appropriateness of curve fitting. Where the starting data were poor the curve and subsequent gIC50s were excluded from further analysis. Cell line seedings were considered of poor quality when the r^2 value of the fitted curve was <0.75. Finally, where data quality permits, the Ymin values (defined as the maximum growth inhibition relative to the cell density at Time-zero) were calculated as a measure of cytotoxicity where data were of reasonable quality.

[3] = test system: ZR-75-1; experiment: as above; type: cell-based, human; details: for IC50: Homo sapiens
Description: as §1, §3

[4] = test system: T-47D; experiment: Panel A proliferation assay (CellTiter-Glo); HER2 Gain <5, KRAS WT, PIK3CA p.H1047R; type: cell-based, human; details: for IC50: Homo sapiens, T47D
Description: as §1, §2

[5] = test system: MCF7; experiment: Panel A proliferation assay (CellTiter-Glo); HER2 Loss 1 copy, KRAS WT, PIK3CA p.E545K; type: cell-based, human; details: for IC50: Homo sapiens
Description: as §1, §2

[6] = test system: HCC1954; experiment: Panel A proliferation assay (CellTiter-Glo); HER2 Gain ≧5, KRAS WT, PIK3CA p.H1047R; type: cell-based, human; details: for IC50: Homo sapiens
Description: as §1, §2

[7] = test system: HCC70; experiment: Panel A proliferation assay (CellTiter-Glo); HER2 Loss 1 copy, KRAS WT, PIK3CA WT; type: cell-based, human; details: for IC50: Homo sapiens
Description: as §1, §2

[8] = test system: BT-20; experiment: Panel A proliferation assay (CellTiter-Glo); HER2 2 copies, KRAS WT, PIK3CA p.P539R; type: cell-based, human; details: for IC50: Homo sapiens
Description: as §1, §2

[9] = test system: panel of 15 human breast cell lines; experiment: Breast Cancer Cell Line Panel A proliferation assay, panel summary; type: cell-based
Description: as §1, with “The dosing solution of Compound B was first prepared in DMSO at a master stock concentration of 10 mM. 1:3 serial dilutions were then made of the stock solution to give a range of working stock concentrations; 10.00 mM, 3.164 mM, 1.001 mM, 316.9 μM, 100.3 μM, 31.74 μM, 10.04 μM, 3.178 μM, 1.006 μM and 318.3 nM. The working stock concentrations of Compound B were then dispensed into the seeded cancer cell lines using a Biomek FX liquid handler to give final treatment concentrations of 0.1% of the stock concentration. A similar volume of DMSO without Compound B was dispensed into the 24 control wells of each seeding density at a concentration of 0.1%.” left out, “After a 72 h incubation, an equal volume of the CellTiter-Glo (CellTiter-Glo Luminescent Cell Viability Assay, Promega, Madison, Wis.) to that of the cell culture medium was added into each well of the plate.” left out
The luminescence of Compound B treated cells was compared relative to the average of the 24 DMSO-treated control wells at each cell density for every concentration of Compound B for all triplicate wells. […] Finally, where data quality permits, the Ymin values (defined as the maximum growth inhibition relative to the cell density at Time-zero) were calculated as a measure of cytotoxicity where data were of reasonable quality.

[10] = test system: PI3K family of enzymes; experiment: Selectivity in a large panel of protein kinases; type: biochemical
[11] = high seeding density, 72 h, read-out: High Density gIC50
[12] = low seeding density, 72 h, read-out: Low Density gIC50
[13] = mean of low and high density, read-out: Mean gIC50
[14] = high density, % of cells at T = 0
[15] = low density, % of cells at T = 0

## COc1ncc(-c2ccc3nccc(-c4ccnnc4)c3c2)cc1NS(=O)(=O)c1ccc(F)cc1F [Compound B, 2,4-difluoro-N-{2-(methyloxy)-5-[4-(4-pyridazinyl)-6-quinolinyl]-3-pyridinyl}benzenesulfonamide]
[1]; EFM-19, high density, % of cells at T = 0
  High Density Y-Min: 22.7%
[1]; EFM-19, low density, % of cells at T = 0
  Low Density Y-Min: 24.1%
[1]; EFM-19, high seeding density, 72 h, read-out: High Density gIC50
  IC50: 0.5 nM
[1]; EFM-19, low seeding density, 72 h, read-out: Low Density gIC50
  IC50: 0.6 nM
[1]; EFM-19, mean of low and high density, read-out: Mean gIC50
  IC50: 0.55 nM
[2]; [11]
  IC50: 1.1 nM
[2]; [12]
  IC50: 1.7 nM
[2]; [13]
  IC50: 1.4 nM
[2]; [14]
  High Density Y-Min: 12.2%
[2]; [15]
  Low Density Y-Min: 19.8%
[3]; ZR-75-1, high seeding density, 72 h, read-out: High Density gIC50
  IC50: 0.9 nM
[3]; ZR-75-1, low seeding density, 72 h, read-out: Low Density gIC50
  IC50: 0.8 nM
[3]; ZR-75-1, mean of low and high density, read-out: Mean gIC50
  IC50: 0.85 nM
[3]; ZR-75-1, high density, % of cells at T = 0
  High Density Y-Min: 22.1%
[3]; ZR-75-1, low density, % of cells at T = 0
  Low Density Y-Min: 19.8%
[4]; [11]
  IC50: 1.8 nM
[4]; [12]
  IC50: 1.1 nM
[4]; [13]
  IC50: 1.45 nM
[4]; [14]
  High Density Y-Min: 103.6%
[4]; [15]
  Low Density Y-Min: 104.6%
[5]; MCF7, high seeding density, 72 h, read-out: High Density gIC50
  IC50: 1.1 nM
[5]; MCF7, low seeding density, 72 h, read-out: Low Density gIC50
  IC50: 2.5 nM
[5]; MCF7, mean of low and high density, read-out: Mean gIC50
  IC50: 1.8 nM
[5]; MCF7, high density, % of cells at T = 0
  High Density Y-Min: 82.2%
[5]; MCF7, low density, % of cells at T = 0
  Low Density Y-Min: 78.5%
[6]; HCC1954, high density, % of cells at T = 0
  High Density Y-Min: 18.3%
[6]; HCC1954, low density, % of cells at T = 0
  Low Density Y-Min: 19.8%
[6]; HCC1954, high seeding density, 72 h, read-out: High Density gIC50
  IC50: 3.4 nM
[6]; HCC1954, low seeding density, 72 h, read-out: Low Density gIC50
  IC50: 3 nM
[6]; HCC1954, mean of low and high density, read-out: Mean gIC50
  IC50: 3.2 nM
[7]; HCC70, high density, % of cells at T = 0
  High Density Y-Min: 8.7%
[7]; HCC70, low density, % of cells at T = 0
  Low Density Y-Min: 9.6%
[7]; HCC70, high seeding density, 72 h, read-out: High Density gIC50
  IC50: 4.8 nM
[7]; HCC70, low seeding density, 72 h, read-out: Low Density gIC50
  IC50: 4.6 nM
[7]; HCC70, mean of low and high density, read-out: Mean gIC50
  IC50: 4.7 nM
[8]; BT-20, high density, % of cells at T = 0
  High Density Y-Min: 20.7%
[8]; BT-20, low density, % of cells at T = 0
  Low Density Y-Min: 10.7%
[8]; BT-20, high seeding density, 72 h, read-out: High Density gIC50
  IC50: 7.8 nM
[8]; BT-20, low seeding density, 72 h, read-out: Low Density gIC50
  IC50: 6.3 nM
[8]; BT-20, mean of low and high density, read-out: Mean gIC50
  IC50: 7.05 nM
[9]; 15 human breast cell lines, read-out: overall median gIC50
  IC50: 3.2 nM
[9]; number of lines / lines tested
  tumor cell lines with gIC50>20 nM: 3/15
  tumor cell lines with gIC50s<3 nM: 7/15
[10]
  selectivity for the PI3K family of enzymes: good selectivity
